Laboratory results as given in patent publication US8853392B2, “Benzamide mGluR5 positive allosteric modulators and methods of making and using same” (Vanderbilt University, priority 2007, dated 2014).
Like-named read-outs stand apart in the source and are kept apart here.

Legend:
rat mGluR5 = molecular target: T1, rat mGluR5 (Rattus norvegicus, UniProt P31424); experiment: potentiation of mGluR5 response to glutamate, Ca2+ fluorescence (FDSS) in HEK cells transfected with rat mGluR5; assay type: cell-based
T1 construct: expressed in transfected cells; host or cells: human embryonic kidney (HEK) cells
Protocol: Human embryonic kidney (HEK) cells transfected with rat mGluR5 were plated in clear bottom assay plates for assay in a Functional Drug Screening System (FDSS). The cells were loaded with a Ca^2+-sensitive fluorescent dye (e.g., Fluo-4), and the plates were washed and placed in the FDSS instrument. After establishment of a fluorescence baseline for twelve seconds, the compounds of the present invention were added to the cells, and the response in cells was measured. Five minutes later, an mGluR5 agonist (e.g., glutamate, 3,5-dihydroxyphenylglycine, or quisqualate) was added to the cells, and the response of the cells was measured. Potentiation of the agonist response of mGluR5 by the compounds in the present invention was observed as an increase in response to non-maximal concentrations of agonist (here, glutamate) in the presence of compound compared to the response to agonist in the absence of compound.
The above described assay operated in two modes. In the first mode, a range of concentrations of the present compounds were added to cells, followed by a single fixed concentration of agonist. If a compound acted as a potentiator, an EC50 value for potentiation and a maximum extent of potentiation by the compound at this concentration of agonist was determined by non-linear curve fitting. In the second mode, several fixed concentrations of the present compounds were added to various wells on a plate, followed by a range of concentrations of agonist for each concentration of present compound; the EC50 values for the agonist at each concentration of compound were determined by non-linear curve fitting. A decrease in the EC50 value of the agonist with increasing concentrations of the present compounds (a leftward shift of the agonist concentration-response curve) is an indication of the degree of mGluR5 potentiation at a given concentration of the present compound. An increase in the EC50 value of the agonist with increasing concentrations of the present compounds (a rightward shift of the agonist concentration-response curve) is an indication of the degree of mGluR5 antagonism at a given concentration of the present compound. The second mode also indicates whether the present compounds also affect the maximum response to mGluR5 to agonists.
Human embryonic kidney (HEK) cells transfected with rat mGluR5 were plated in clear-bottomed, poly-D-lysine-coated assay plates in glutamate-glutamine-free medium growth and incubated overnight at 37° C. in 5% CO2. The following day, cells were loaded with 2 μM calcium indicator dye, fluo-4 AM, for 1 h at 37° C. Dye was removed and replaced with assay buffer containing 1× Hanks balanced salt solution (Invitrogen, Carlsbad, Calif.), 20 mM HEPES, and 2.5 mM probenecid, pH 7.4. Cell plates were then loaded into the Functional Drug Screening System 6000 (FDSS 6000, Hamamatsu, Japan). After establishment of a fluorescence baseline for twelve seconds, the compounds of the present invention were added to the cells, and the response in cells was measured. Five minutes later, an mGluR5 agonist (e.g., glutamate, 3,5-dihydroxyphenylglycine, or quisqualate) was added to the cells, and the response of the cells was measured during a 1 minute incubation with agonists. Typically, the effect of test compounds of the present invention was on an EC20 concentration of glutamate was measured. All test compounds were dissolved and diluted in 100% DMSO and then serially diluted into assay buffer for a 2.5× stock in 0.25% DMSO; stock compounds were then added to the assay for a final DMSO concentration of 0.1%. Calcium fluorescence measures were recorded as fold over basal fluorescence; raw data was then normalized to the maximal response to agonist. Potentiation of the agonist response of mGluR5 by the compounds in the present invention was observed as an increase in response to non-maximal concentrations of agonist (here, glutamate) in the presence of compound compared to the response to agonist in the absence of compound. […]

[1] = system: amphetamine-induced hyperlocomotion; experiment: reversal of amphetamine-induced hyperlocomotion; assay type: in vivo, male Sprague-Dawley rats; details: rats, i.p., FIG. 8-10, 13, 14
Protocol: For example, compounds of the present invention reverse amphetamine-induced hyperlocomotion in male Sprague-Dawley rats at doses ranging from 1 to 100 mg/kg i.p. Data for three example compounds follow:
Locomotor activity can be assessed as mean distance traveled (cm) in standard 16×16 photocell testing chambers measuring 43.2 cm (L)×43.2 cm (W)×30.5 cm (H) (Med Associates, St. Albans, Vt.). Animals can be habituated to individual activity chambers for at least 60 min prior to drug administration. Following administration of appropriate drugs or vehicle, activity can be recorded for a 3 hr time period. Data can be expressed as the mean (±SEM) distance traveled recorded in 10 min intervals over the test period. The data can be analyzed using repeated measures analysis of variance (ANOVA) followed by post-hoc testing using Tukey's HSD test, when appropriate. A difference can be considered significant when p≦0.05.

[2] = Table 1, EC50 for potentiating the mGluR5 receptor, unit inferred, read-out: EC50
[3] = HEK293, maximum extent of potentiation, normalized to maximal response to glutamate, SAR tables, read-out: % Glu Max
[4] = potentiation of glutamate response, HEK cells transfected with rat mGluR5, SAR tables, read-out: EC50
[5] = EC50, Table 1, EC50 for potentiating the mGluR5 receptor, unit inferred

T1 sequence (P31424 21-1203): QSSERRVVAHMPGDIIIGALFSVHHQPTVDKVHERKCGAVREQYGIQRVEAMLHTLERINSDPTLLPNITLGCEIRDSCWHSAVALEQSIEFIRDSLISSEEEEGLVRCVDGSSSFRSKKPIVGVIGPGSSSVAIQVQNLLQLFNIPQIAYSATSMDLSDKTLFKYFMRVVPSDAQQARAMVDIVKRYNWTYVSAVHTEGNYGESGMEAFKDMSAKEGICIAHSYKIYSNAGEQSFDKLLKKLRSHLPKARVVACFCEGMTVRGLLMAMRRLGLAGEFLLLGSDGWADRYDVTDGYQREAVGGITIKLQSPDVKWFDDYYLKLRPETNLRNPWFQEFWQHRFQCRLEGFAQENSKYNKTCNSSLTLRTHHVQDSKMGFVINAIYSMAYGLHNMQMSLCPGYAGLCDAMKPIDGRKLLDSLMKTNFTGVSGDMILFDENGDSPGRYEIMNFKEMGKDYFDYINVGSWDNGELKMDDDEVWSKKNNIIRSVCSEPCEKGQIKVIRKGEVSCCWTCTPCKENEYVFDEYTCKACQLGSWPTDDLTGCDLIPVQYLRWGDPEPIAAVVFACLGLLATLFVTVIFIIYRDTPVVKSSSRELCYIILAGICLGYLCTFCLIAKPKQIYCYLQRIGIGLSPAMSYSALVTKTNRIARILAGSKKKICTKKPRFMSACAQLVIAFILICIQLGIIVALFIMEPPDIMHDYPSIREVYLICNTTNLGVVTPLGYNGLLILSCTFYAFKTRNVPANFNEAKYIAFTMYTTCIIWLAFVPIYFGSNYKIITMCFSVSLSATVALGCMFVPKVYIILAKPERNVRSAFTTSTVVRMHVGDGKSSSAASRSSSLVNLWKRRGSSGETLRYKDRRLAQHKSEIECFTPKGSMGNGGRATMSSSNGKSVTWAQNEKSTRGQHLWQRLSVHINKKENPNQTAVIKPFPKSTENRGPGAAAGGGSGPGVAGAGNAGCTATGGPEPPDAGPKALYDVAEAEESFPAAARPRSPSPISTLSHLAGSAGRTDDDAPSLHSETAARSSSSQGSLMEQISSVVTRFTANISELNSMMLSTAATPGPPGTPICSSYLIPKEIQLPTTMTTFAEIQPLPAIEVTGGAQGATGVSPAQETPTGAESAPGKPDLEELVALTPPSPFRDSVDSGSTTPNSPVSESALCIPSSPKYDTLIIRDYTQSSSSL

## CCCC1(O)CCN(C(=O)c2ccc(C#Cc3ccccc3)cc2)CC1 [Compound VU60/C109B2, (4-hydroxy-4-propylpiperidin-1-yl)(4-(phenylethynyl)phenyl)methanone]
Rat mGluR5; HEK293, read-out: % Glu Max
  Emax: 90%
Rat mGluR5; HEK293, read-out: % Glu Max, maximum extent of potentiation, normalized to maximal response to glutamate, SAR tables
  Emax: 90.1%
Rat mGluR5; [2]
  EC50: 1610 nM
Rat mGluR5; in vitro potency, read-out: In vitro
  EC50: 1250 nM
[1]
  reversal of amphetamine-induced hyperlocomotion: efficacy in reversing amphetamine-induced hyperlocomotion
[1]; listed as VU60
  reversal of amphetamine-induced hyperlocomotion: in vivo efficacy

## O=C(c1ccc(C#Cc2ccccc2)cc1)N1CCC(NC2CCCCC2)CC1 [(4-(cyclohexylamino)piperidin-1-yl)(4-(phenylethynyl)phenyl)methanone]
Rat mGluR5; [2]
  EC50: 78 nM

## O=C(NCCc1ccc(Cl)cc1)c1ccc(C#Cc2ccccc2)cc1 [N-(4-chlorophenethyl)-4-(phenylethynyl)benzamide]
Rat mGluR5; [2]
  EC50: 177 nM

## O=C(c1ccc(C#Cc2ccc(F)cc2)cc1)N1CCC(CO)CC1 [Compound 20g, (4-((4-fluorophenyl)ethynyl)phenyl)(4-(hydroxymethyl)piperidin-1-yl)methanone]
Rat mGluR5; [3]
  Emax: 95%
Rat mGluR5; [2]
  EC50: 26.1 nM
Rat mGluR5; [4]
  EC50: 24.7 nM

## O=C(NCCN1CCOCC1)c1ccc(C#Cc2ccccc2)cc1 [N-(2-morpholinoethyl)-4-(phenylethynyl)benzamide]
Rat mGluR5; [2]
  EC50: 137 nM

## N#CC1(c2ccccc2)CCN(C(=O)c2ccc(C#Cc3ccccc3)cc2)CC1 [4-phenyl-1-(4-(phenylethynyl)benzoyl)piperidine-4-carbonitrile]
Rat mGluR5; [5]
  EC50: 1140 nM

## O=C(c1ccc(C#Cc2ccc(F)cc2)cc1)N1CCOCC1 [Compound 20k, (4-((4-fluorophenyl)ethynyl)phenyl)(morpholino)methanone]
Rat mGluR5; [3]
  Emax: 107%
Rat mGluR5; [2]
  EC50: 24.7 nM
Rat mGluR5; [4]
  EC50: 23.6 nM

## O=C(c1ccc(C#Cc2ccc(F)c(F)c2)cc1)N1CCOCC1 [Compound 20l, (4-((3,4-difluorophenyl)ethynyl)phenyl)(morpholino)methanone]
Rat mGluR5; [3]
  Emax: 114%
Rat mGluR5; [2]
  EC50: 35.1 nM
Rat mGluR5; [4]
  EC50: 33.5 nM

## CC(C)(C)CCNC(=O)c1ccc(C#Cc2ccccc2)cc1 [N-(3,3-dimethylbutyl)-4-(phenylethynyl)benzamide]
Rat mGluR5; [2]
  EC50: 19.4 nM

## O=C(c1ccc(C#Cc2cc(F)cc(F)c2)cc1)N1CCC(O)CC1 [Compound 19e, (4-((3,5-difluorophenyl)ethynyl)phenyl)(4-hydroxypiperidin-1-yl)methanone]
Rat mGluR5; [3]
  Emax: 67%
Rat mGluR5; [2]
  EC50: 1000 nM
Rat mGluR5; [4]
  EC50: 593 nM

## O=C(c1ccc(C#Cc2ccccc2)cc1)N1CCC(O)(c2ccccc2)CC1 [(4-hydroxy-4-phenylpiperidin-1-yl)(4-(phenylethynyl)phenyl)methanone]
Rat mGluR5; [2]
  EC50: 3660 nM

## O=C(c1ccc(C#Cc2ccccc2)cc1)N1CCC(O)(c2ccc(Cl)cc2C(F)(F)F)CC1 [(4-(4-chloro-2-(trifluoromethyl)phenyl)-4-hydroxypiperidin-1-yl)(4-(phenylethynyl)phenyl)methanone]
Rat mGluR5; [2]
  EC50: 477 nM

## CN(C)CCNC(=O)c1ccc(C#Cc2ccccc2)cc1 [N-(2-(dimethylamino)ethyl)-4-(phenylethynyl)benzamide]
Rat mGluR5; [2]
  EC50: 2990 nM

## O=C(c1ccc(C#Cc2ccc(F)cc2)cc1)N1CCC(O)CC1 [Compound 19c, (4-((4-fluorophenyl)ethynyl)phenyl)(4-hydroxypiperidin-1-yl)methanone]
Rat mGluR5; [3]
  Emax: 63%
Rat mGluR5; [2]
  EC50: 15.2 nM
Rat mGluR5; [4]
  EC50: 14.7 nM

## O=C(c1ccc(C#Cc2ccccc2F)cc1)N1CCC(CO)CC1 [Compound 20e, (4-((2-fluorophenyl)ethynyl)phenyl)(4-(hydroxymethyl)piperidin-1-yl)methanone]
Rat mGluR5; [3]
  Emax: 88%
Rat mGluR5; [2]
  EC50: 23.6 nM
Rat mGluR5; [4]
  EC50: 20.6 nM

## CC1(O)CCN(C(=O)c2ccc(C#Cc3ccc(F)cc3)cc2)CC1 [Compound 20c, (4-((4-fluorophenyl)ethynyl)phenyl)(4-hydroxy-4-methylpiperidin-1-yl)methanone]
Rat mGluR5; [3]
  Emax: 91%
Rat mGluR5; [2]
  EC50: 54.2 nM
Rat mGluR5; [4]
  EC50: 39.4 nM

## O=C(c1ccc(C#Cc2ccccc2)cc1)N1CCC(O)(c2ccc(F)cc2)CC1 [drawing 155, (4-(4-fluorophenyl)-4-hydroxypiperidin-1-yl)(4-(phenylethynyl)phenyl)methanone]
Rat mGluR5; [2]
  EC50: 1250 nM

## O=C(c1ccc(C#Cc2cccc(C(F)(F)F)c2)cc1)N1CCC(O)CC1 [Compound 19i, (4-hydroxypiperidin-1-yl)(4-((3-(trifluoromethyl)phenyl)ethynyl)phenyl)methanone]
Rat mGluR5; [3]
  Emax: 68%
Rat mGluR5; [2]
  EC50: 2210 nM
Rat mGluR5; [4]
  EC50: 2060 nM

## O=C(c1ccc(C#Cc2ccccc2)cc1)N1CCC(NCCN2CCOCC2)CC1 [(4-(2-morpholinoethylamino)piperidin-1-yl)(4-(phenylethynyl)phenyl)methanone]
Rat mGluR5; [2]
  EC50: 383 nM

## O=C(c1ccc(C#Cc2ccccc2)cc1)N1CCNCC1 [(4-(phenylethynyl)phenyl)(piperazin-1-yl)methanone]
Rat mGluR5; [2]
  EC50: 4790 nM

## O=C(c1ccc(-c2nc(-c3ccc(F)cc3)no2)cc1)N1CCN(c2ccncc2)CC1 [(4-(3-(4-fluorophenyl)-1,2,4-oxadiazol-5-yl)phenyl)(4-(pyridin-4-yl)piperazin-1-yl)methanone]
Rat mGluR5; [2]
  EC50: 4210 nM

## CC(=O)C1(c2ccccc2)CCN(C(=O)c2ccc(C#Cc3ccccc3)cc2)CC1 [1-(4-phenyl-1-(4-(phenylethynyl)benzoyl)piperidin-4-yl)ethanone]
Rat mGluR5; [5]
  EC50: 1250 nM

## O=C(c1ccc(C#Cc2cccc(F)c2)cc1)N1CCC(O)CC1 [Compound 19b, (4-((3-fluorophenyl)ethynyl)phenyl)(4-hydroxypiperidin-1-yl)methanone]
Rat mGluR5; [3]
  Emax: 77%
Rat mGluR5; [2]
  EC50: 3.25 nM
Rat mGluR5; [4]
  EC50: 3.25 nM

## O=C(c1ccc(C#Cc2ccccc2)cc1)N1CCN(c2ccncc2)CC1 [(4-(phenylethynyl)phenyl)(4-(pyridin-4-yl)piperazin-1-yl)methanone]
Rat mGluR5; [2]
  EC50: 3680 nM

## O=C(NCCN1CCCCC1)c1ccc(C#Cc2ccccc2)cc1 [4-(phenylethynyl)-N-(2-(piperidin-1-yl)ethyl)benzamide]
Rat mGluR5; [2]
  EC50: 1790 nM

## CC1(O)CCN(C(=O)c2ccc(C#Cc3ccccc3F)cc2)CC1 [Compound 20a, (4-((2-fluorophenyl)ethynyl)phenyl)(4-hydroxy-4-methylpiperidin-1-yl)methanone]
Rat mGluR5; [3]
  Emax: 86%
Rat mGluR5; [2]
  EC50: 37.9 nM
Rat mGluR5; [4]
  EC50: 34.9 nM

## CN1CCCC1CCNC(=O)c1ccc(C#Cc2ccccc2)cc1 (centres unmarked) [N-(2-(1-methylpyrrolidin-2-yl)ethyl)-4-(phenylethynyl)benzamide]
Rat mGluR5; [2]
  EC50: 3530 nM

## CC1CCC(NC(=O)c2ccc(C#Cc3ccccc3)cc2)CC1 (centres unmarked) [N-(4-methylcyclohexyl)-4-(phenylethynyl)benzamide]
Rat mGluR5; [2]
  EC50: 76.3 nM

## O=C(c1ccc(C#Cc2ccccc2)cc1)N1CC(O)(c2cccs2)C1 [Compound 9d, (3-hydroxy-3-(thiophen-2-yl)azetidin-1-yl)(4-(phenylethynyl)phenyl)methanone]
Rat mGluR5; [3]
  Emax: 43.7%
Rat mGluR5; [2]
  EC50: 1710 nM
Rat mGluR5; [4]
  EC50: 1470 nM
